Source: patent publication US9079901B2, “Fused heterocyclic compounds as ion channel modulators” (Gilead Sciences, Inc., priority 2010, dated 2015)

These molecules were tested against wild-type human cardiac sodium channel, hNav1.5 (late sodium current) in HEK293 cells (Homo sapiens, UniProt Q14524) (assay: Late INa screening assay (automated whole-cell patch clamp, PatchXpress)). Settings: HEK293, compound at 1 μM; late INa generated with 10 μM Tefluthrin (or 50 nM ATX II); HEK293 hNav1.5; read-out: Late INa 1 μM (percent block of late INa).
Assay type: cell-based
Procedure, shortened: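 Percent block was derived from mean current 225–250 ms into a 250 ms depolarisation to −20 mV (holding −120 mV, every 10 s), normalised to the current left in Na-free solution. Whole-cell recordings came from HEK293 cells stably expressing α-subunit-only hNav1.5, at 24–27 °C. Late current was enhanced with 10 μM tefluthrin or 50 nM ATX II, then compound (typically 10 μM) was added three times over 7–8 min.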

Chain of wild-type human cardiac sodium channel, hNav1.5 (late sodium current) in HEK293 cells (Q14524 whole entry): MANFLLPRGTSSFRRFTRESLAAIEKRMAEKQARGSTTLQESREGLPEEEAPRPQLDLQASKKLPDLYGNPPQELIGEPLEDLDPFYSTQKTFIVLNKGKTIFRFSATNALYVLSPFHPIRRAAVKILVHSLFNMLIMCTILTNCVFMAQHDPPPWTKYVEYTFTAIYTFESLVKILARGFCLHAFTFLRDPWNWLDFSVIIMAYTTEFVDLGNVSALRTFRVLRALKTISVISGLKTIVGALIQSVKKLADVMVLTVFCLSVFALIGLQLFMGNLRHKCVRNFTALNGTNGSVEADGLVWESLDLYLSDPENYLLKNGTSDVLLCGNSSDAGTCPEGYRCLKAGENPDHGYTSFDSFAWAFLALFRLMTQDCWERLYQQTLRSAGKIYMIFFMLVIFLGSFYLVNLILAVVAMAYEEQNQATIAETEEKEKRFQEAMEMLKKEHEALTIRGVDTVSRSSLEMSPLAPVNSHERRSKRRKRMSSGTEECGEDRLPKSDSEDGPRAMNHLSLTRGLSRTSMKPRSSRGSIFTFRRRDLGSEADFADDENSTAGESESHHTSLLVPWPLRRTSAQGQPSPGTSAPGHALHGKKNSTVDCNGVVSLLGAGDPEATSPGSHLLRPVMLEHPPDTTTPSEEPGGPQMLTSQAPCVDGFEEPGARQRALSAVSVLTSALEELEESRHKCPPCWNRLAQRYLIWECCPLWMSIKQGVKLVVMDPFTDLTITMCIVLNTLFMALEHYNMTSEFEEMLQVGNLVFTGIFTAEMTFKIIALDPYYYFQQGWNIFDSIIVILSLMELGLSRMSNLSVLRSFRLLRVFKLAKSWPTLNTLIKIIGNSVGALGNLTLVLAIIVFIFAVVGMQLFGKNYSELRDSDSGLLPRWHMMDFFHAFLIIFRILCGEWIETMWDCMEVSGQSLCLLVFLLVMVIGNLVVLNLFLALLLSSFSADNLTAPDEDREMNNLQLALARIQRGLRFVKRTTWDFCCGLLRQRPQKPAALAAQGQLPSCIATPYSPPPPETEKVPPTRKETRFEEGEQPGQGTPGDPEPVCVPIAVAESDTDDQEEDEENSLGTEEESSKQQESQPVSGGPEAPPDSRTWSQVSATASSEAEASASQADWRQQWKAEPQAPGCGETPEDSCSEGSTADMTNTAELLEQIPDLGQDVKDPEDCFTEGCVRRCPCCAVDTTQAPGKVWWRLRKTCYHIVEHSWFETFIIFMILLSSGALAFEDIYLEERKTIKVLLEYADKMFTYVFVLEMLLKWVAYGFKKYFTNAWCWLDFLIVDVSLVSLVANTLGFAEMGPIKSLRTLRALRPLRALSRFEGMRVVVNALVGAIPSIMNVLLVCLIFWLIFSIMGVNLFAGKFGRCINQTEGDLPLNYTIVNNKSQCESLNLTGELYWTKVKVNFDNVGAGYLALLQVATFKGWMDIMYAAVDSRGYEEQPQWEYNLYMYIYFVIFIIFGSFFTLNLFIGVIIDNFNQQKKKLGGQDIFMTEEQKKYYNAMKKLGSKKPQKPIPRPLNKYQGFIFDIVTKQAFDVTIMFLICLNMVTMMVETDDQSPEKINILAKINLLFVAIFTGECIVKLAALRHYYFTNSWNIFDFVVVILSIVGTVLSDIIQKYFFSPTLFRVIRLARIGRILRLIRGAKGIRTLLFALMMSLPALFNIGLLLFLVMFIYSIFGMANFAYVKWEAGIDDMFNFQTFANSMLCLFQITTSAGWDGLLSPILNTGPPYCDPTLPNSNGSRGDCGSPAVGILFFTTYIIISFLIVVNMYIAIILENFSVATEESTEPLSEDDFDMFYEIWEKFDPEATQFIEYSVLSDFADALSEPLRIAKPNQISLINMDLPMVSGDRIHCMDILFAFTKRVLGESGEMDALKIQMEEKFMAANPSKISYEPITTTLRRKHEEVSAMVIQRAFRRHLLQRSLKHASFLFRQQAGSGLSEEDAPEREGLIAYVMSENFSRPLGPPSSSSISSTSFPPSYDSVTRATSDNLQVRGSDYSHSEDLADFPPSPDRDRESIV

Point of comparison: COc1ccccc1-c1nc(Cn2nc3ccc(-c4ccc(OC(F)(F)F)cc4)cn3c2=O)no1 [compound 11, 2-((5-(2-methoxyphenyl)-1,2,4-oxadiazol-3-yl)methyl)-6-(4-(trifluoromethoxy)phenyl)-[1,2,4]triazolo[4,3-a]pyridin-3(2H)-one], inhibition at 1 µM 22%. Against it:
- O=c1n(Cc2nonc2-c2ccccc2)nc2ccc(-c3ccc(OC(F)(F)F)cc3)cn12 [compound 17, 2-((4-phenyl-1,2,5-oxadiazol-3-yl)methyl)-6-(4-(trifluoromethoxy)phenyl)-[1,2,4]triazolo[4,3-a]pyridin-3(2H)-one] — lower, 18.4%
- Cc1noc(Cn2nc3ccc(-c4ccc(Cl)c(Cl)c4)cn3c2=O)n1 [compound 134, 6-(3,4-dichlorophenyl)-2-((3-methyl-1,2,4-oxadiazol-5-yl)methyl)-[1,2,4]triazolo[4,3-a]pyridin-3(2H)-one] — lower, 15.5%
- O=c1n(CCN2CC[C@@H](Oc3ccc(F)cc3)C2)nc2ccc(-c3ccc(OC(F)(F)F)cc3)cn12 [compound 186, (R)-2-(2-(3-(4-fluorophenoxy)pyrrolidin-1-yl)ethyl)-6-(4-(trifluoromethoxy)phenyl)-[1,2,4]triazolo[4,3-a]pyridin-3(2H)-one] — higher, 37.3%
- O=c1n(-c2ccccn2)nc2ccc(-c3ccc(OC(F)(F)F)cc3)cn12 [compound 34, 2-(pyridin-2-yl)-6-(4-(trifluoromethoxy)phenyl)-[1,2,4]triazolo[4,3-a]pyridin-3(2H)-one] — higher, 26%
- O=c1n(CCOc2ccccc2Cl)nc2ccc(-c3ccc(OC(F)(F)F)cc3)cn12 [compound 46, 2-(2-(2-chlorophenoxy)ethyl)-6-(4-(trifluoromethoxy)phenyl)-[1,2,4]triazolo[4,3-a]pyridin-3(2H)-one] — higher, 43.2%
- Cc1noc(C)c1Cn1nc2ccc(-c3ccc(OC(F)(F)F)cc3)cn2c1=O [compound 6, 2-((3,5-dimethylisoxazol-4-yl)methyl)-6-(4-(trifluoromethoxy)phenyl)-[1,2,4]triazolo[4,3-a]pyridin-3(2H)-one] — lower, 15.2%
- COc1cccc(CCn2nc3ccc(-c4ccc(OC(F)(F)F)cc4)cn3c2=O)n1 [compound 103, 2-(2-(6-methoxypyridin-2-yl)ethyl)-6-(4-(trifluoromethoxy)phenyl)-[1,2,4]triazolo[4,3-a]pyridin-3(2H)-one] — higher, 49.7%
- Cc1ncc(Cn2nc3ccc(-c4ccc(C(F)(F)F)cc4)cn3c2=O)o1 [compound 197, 2-((2-methyloxazol-5-yl)methyl)-6-(4-(trifluoromethyl)phenyl)-[1,2,4]triazolo[4,3-a]pyridin-3(2H)-one] — lower, 19.7%
- O=c1n(CCOc2cccc(C(F)(F)F)n2)nc2ccc(-c3ccc(OC(F)(F)F)cc3)cn12 [compound 65, 6-(4-(trifluoromethoxy)phenyl)-2-(2-(6-(trifluoromethyl)pyridin-2-yloxy)ethyl)-[1,2,4]triazolo[4,3-a]pyridin-3(2H)-one] — lower, 21.1%
- Cc1noc(Cn2nc3ccc(-c4ccc(OC(F)(F)F)cc4)cn3c2=O)n1 [compound 1, 2-((3-methyl-1,2,4-oxadiazol-5-yl)methyl)-6-(4-(trifluoromethoxy)phenyl)-[1,2,4]triazolo[4,3-a]pyridin-3(2H)-one] — higher, 27.5%
- O=c1n(CCn2cccn2)nc2ccc(-c3ccc(OC(F)(F)F)cc3)cn12 [compound 35, 2-(2-(1H-pyrazol-1-yl)ethyl)-6-(4-(trifluoromethoxy)phenyl)-[1,2,4]triazolo[4,3-a]pyridin-3(2H)-one] — lower, 12.2%
- O=c1n(CC#Cc2cnccc2Cl)nc2ccc(-c3ccc(OC(F)(F)F)cc3)cn12 [compound 68, 2-(3-(4-chloropyridin-3-yl)prop-2-ynyl)-6-(4-(trifluoromethoxy)phenyl)-[1,2,4]triazolo[4,3-a]pyridin-3(2H)-one] — lower, 11.1%
- Cc1noc(Cn2nc3ccc(-c4ccc(Oc5ccc(F)cc5)cc4)cn3c2=O)n1 [compound 93, 6-(4-(4-fluorophenoxy)phenyl)-2-((3-methyl-1,2,4-oxadiazol-5-yl)methyl)-[1,2,4]triazolo[4,3-a]pyridin-3(2H)-one] — higher, 71.3%
- O=c1n(CCCOc2cccnn2)nc2ccc(-c3ccc(OC(F)(F)F)cc3)cn12 [compound 79, 2-(3-(pyridazin-3-yloxy)propyl)-6-(4-(trifluoromethoxy)phenyl)-[1,2,4]triazolo[4,3-a]pyridin-3(2H)-one] — lower, 11.7%
- COC[C@H](Cn1nc2ccc(-c3ccc(OC(F)(F)F)cc3)cn2c1=O)Oc1ncccc1C(F)(F)F [compound 91, (S)-2-(3-methoxy-2-(3-(trifluoromethyl)pyridin-2-yloxy)propyl)-6-(4-(trifluoromethoxy)phenyl)-[1,2,4]triazolo[4,3-a]pyridin-3(2H)-one] — higher, 58.3%
- O=c1n(Cc2ccc(OC(F)(F)F)cc2)nc2ccc(-c3ccc(OC(F)(F)F)cc3)cn12 [compound 12, 2-(4-(trifluoromethoxy)benzyl)-6-(4-(trifluoromethoxy)phenyl)-[1,2,4]triazolo[4,3-a]pyridin-3(2H)-one] — lower, 11.1%
- O=c1[nH]nc2ccc(-c3ccc(OC(F)(F)F)cc3)cn12 [compound 200, 6-(4-(trifluoromethoxy)phenyl)-[1,2,4]triazolo[4,3-a]pyridin-3(2H)-one] — higher, 26.5%
- O=c1n(CCc2c(F)cccc2F)nc2ccc(-c3ccc(OC(F)(F)F)cc3)cn12 [compound 63, 2-(2,6-difluorophenethyl)-6-(4-(trifluoromethoxy)phenyl)-[1,2,4]triazolo[4,3-a]pyridin-3(2H)-one] — higher, 46.9%
- O=c1n(CCc2cc(C3CC3)ccn2)nc2ccc(-c3ccc(OC(F)(F)F)cc3)cn12 [compound 57, 2-(2-(4-cyclopropylpyridin-2-yl)ethyl)-6-(4-(trifluoromethoxy)phenyl)-[1,2,4]triazolo[4,3-a]pyridin-3(2H)-one] — lower, 20.7%
- O=c1n(Cc2ccc3nonc3c2)nc2ccc(-c3ccc(OC(F)(F)F)cc3)cn12 [compound 10, 2-(benzo[c][1,2,5]oxadiazol-5-ylmethyl)-6-(4-(trifluoromethoxy)phenyl)-[1,2,4]triazolo[4,3-a]pyridin-3(2H)-one] — lower, 16.9%
- Cc1nc(COCCn2nc3ccc(-c4ccc(OC(F)(F)F)cc4)cn3c2=O)no1 [compound 86, 2-(2-((5-methyl-1,2,4-oxadiazol-3-yl)methoxy)ethyl)-6-(4-(trifluoromethoxy)phenyl)-[1,2,4]triazolo[4,3-a]pyridin-3(2H)-one] — lower, 17.5%
- Cc1cccc(CCn2nc3ccc(-c4ccc(OC(F)(F)F)cc4)cn3c2=O)n1 [compound 48, 2-(2-(6-methylpyridin-2-yl)ethyl)-6-(4-(trifluoromethoxy)phenyl)-[1,2,4]triazolo[4,3-a]pyridin-3(2H)-one] — higher, 34.9%
- O=c1n(CCOc2nccn3ccnc23)nc2ccc(-c3ccc(OC(F)(F)F)cc3)cn12 [compound 174, 2-(2-(imidazo[1,2-a]pyrazin-8-yloxy)ethyl)-6-(4-(trifluoromethoxy)phenyl)-[1,2,4]triazolo[4,3-a]pyridin-3(2H)-one] — higher, 26.3%
- O=c1n(Cc2noc(CO)n2)nc2ccc(-c3ccc(Oc4ccc(F)cc4)cc3)cn12 [compound 146, 6-(4-(4-fluorophenoxy)phenyl)-2-((5-(hydroxymethyl)-1,2,4-oxadiazol-3-yl)methyl)-[1,2,4]triazolo[4,3-a]pyridin-3(2H)-one] — higher, 32.6%
- CO[C@H](COc1ccccc1Cl)Cn1nc2ccc(-c3ccc(OC(F)(F)F)cc3)cn2c1=O [compound 95, (S)-2-(3-(2-chlorophenoxy)-2-methoxypropyl)-6-(4-(trifluoromethoxy)phenyl)-[1,2,4]triazolo[4,3-a]pyridin-3(2H)-one] — higher, 42.5%
- CC(C)(C)c1cnc(Cn2nc3ccc(-c4ccc(OC(F)(F)F)cc4)cn3c2=O)o1 [compound 183, 2-((5-tert-butyloxazol-2-yl)methyl)-6-(4-(trifluoromethoxy)phenyl)-[1,2,4]triazolo[4,3-a]pyridin-3(2H)-one] — lower, 14.6%
- Cc1c(-c2ccc(OC(F)(F)F)cc2)ccc2n[nH]c(=O)n12 [compound 187, 5-methyl-6-(4-(trifluoromethoxy)phenyl)-[1,2,4]triazolo[4,3-a]pyridin-3(2H)-one] — higher, 29.8%
- Cc1noc(Cn2nc3ccc(-c4ccc(Cl)cc4)cn3c2=O)n1 [compound 149, 6-(4-chlorophenyl)-2-((3-methyl-1,2,4-oxadiazol-5-yl)methyl)-[1,2,4]triazolo[4,3-a]pyridin-3(2H)-one] — higher, 26.2%
- Cc1noc(Cn2nc3ccc(-c4ccc([Si](C)(C)C)cc4)cn3c2=O)n1 [compound 110, 2-((3-methyl-1,2,4-oxadiazol-5-yl)methyl)-6-(4-(trimethylsilyl)phenyl)-[1,2,4]triazolo[4,3-a]pyridin-3(2H)-one] — higher, 44.3%
- Cc1noc(Cn2nc3ccc(-c4ccc(OCC(F)(F)F)cc4)cn3c2=O)n1 [compound 83, 2-((3-methyl-1,2,4-oxadiazol-5-yl)methyl)-6-(4-(2,2,2-trifluoroethoxy)phenyl)-[1,2,4]triazolo[4,3-a]pyridin-3(2H)-one] — lower, 10.7%
- Cc1nc(Cn2nc3ccc(-c4ccc(Oc5ccc(F)cc5)cc4)cn3c2=O)no1 [compound 140, 6-(4-(4-fluorophenoxy)phenyl)-2-((5-methyl-1,2,4-oxadiazol-3-yl)methyl)-[1,2,4]triazolo[4,3-a]pyridin-3(2H)-one] — higher, 60.6%
- Cc1ccnc(CCn2nc3ccc(-c4ccc(OC(F)(F)F)cc4)cn3c2=O)c1 [compound 58, 2-(2-(4-methylpyridin-2-yl)ethyl)-6-(4-(trifluoromethoxy)phenyl)-[1,2,4]triazolo[4,3-a]pyridin-3(2H)-one] — lower, 14.9%
